In brackets after ≈: the same amount, converted by molar mass.
Columns and labels:
Test in all cases: in vitro antibacterial evaluation, MIC by broth dilution
Format in all cases: cell-based
[1] = tested on: Enterococcus sp.; details: broth dilution, 18 hours at 35° C.; for MIC Enterococcus faecalis (ATCC 29212): strain ATCC 29212; for MIC Enterococcus faecalis (GC 2242): strain GC 2242; for MIC Enterococcus faecium (GC 2243): strain GC 2243; for MIC Enterococcus faecalis (GC 2691): strain GC 2691; for MIC Enterococcus faecalis (GC 3059): strain GC 3059; for MIC Enterococcus faecalis (GC 4552): strain GC 4552; for MIC Enterococcus faecalis (GC 4553): strain GC 4553; for MIC Enterococcus faecalis (GC 4554): strain GC 4554; for MIC Enterococcus faecium (GC 4556): strain GC 4556; for MIC Enterococcus faecium (GC 4557): strain GC 4557; for MIC Enterococcus avium (GC 4558): strain GC 4558; for MIC Enterococcus faecalis (GC 6189): strain GC 6189
Procedure, shortened: (§1)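 Following National Committee for Clinical Laboratory Standards recommendations (M7-A2), susceptibility was measured by dilution in Muller-Hinton II […]. Bacteria were seeded at 5×10^5 CFU/mL against compound concentrations from 64 down to 0.06 μg/mL.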

[2] = tested on: Staphylococcus sp.; details: broth dilution, 18 hours at 35° C.; for MIC Staphylococcus aureus (ATCC 29213): strain ATCC 29213; for MIC Staphylococcus aureus (GC 1131): strain GC 1131; for MIC Staphylococcus aureus (GC 3051): strain GC 3051; for MIC Staphylococcus aureus (GC 3053): strain GC 3053; for MIC Staphylococcus aureus (GC 4541): strain GC 4541; for MIC Staphylococcus aureus (GC 4542): strain GC 4542; for MIC Staphylococcus aureus-SMITH (GC 4543): strain GC 4543; for MIC Staphylococcus aureus (GC 4544): strain GC 4544; for MIC Staphylococcus aureus (GC 4545): strain GC 4545; for MIC Staphylococcus haemolyticus (GC 4546): strain GC 4546; for MIC Coagulase Negative Staphylococcus (GC 4547): strain GC 4547; for MIC Coagulase Negative Staphylococcus (GC 4548): strain GC 4548; for MIC Coagulase Negative Staphylococcus (GC 4549): strain GC 4549; for MIC Coagulase Negative Staphylococcus (GC 4551): strain GC 4551; for MIC Coagulase Negative Staphylococcus (GC 6257): strain GC 6257
Procedure, shortened: as §1

[3] = tested on: Streptococcus sp.; details: broth dilution, 18 hours at 35° C.; for MIC Streptococcus pneumoniae (ATCC 6301): strain ATCC 6301; for MIC Streptococcus pneumoniae (GC 1894): strain GC 1894; for MIC Streptococcus pyogenes (GC 4563): strain GC 4563; for MIC Streptococcus agalactiae (GC 4564): strain GC 4564; for MIC Streptococcus pneumoniae (GC 4565): strain GC 4565
Procedure, shortened: as §1

[4] = tested on: Escherichia coli; details: broth dilution, 18 hours at 35° C.; for MIC Escherichia coli (ATCC 25922): strain ATCC 25922; for MIC Escherichia coli (GC 4559): strain GC 4559; for MIC Escherichia coli (GC 4560): strain GC 4560
Procedure, shortened: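 Broth dilution in Muller-Hinton II medium per NCCLS standard M7-A2, with an inoculum of 5×10^5 CFU/mL and antibiotic tested over 64-0.06 μg/mL. MIC was taken as the lowest concentration inhibiting visible growth.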

Row | MIC Enterococcus faecalis (ATCC 29212) [1] [µg/mL] | MIC Enterococcus faecalis (GC 2242) [1] [µg/mL] | MIC Enterococcus faecium (GC 2243) [1] [µg/mL] | MIC Enterococcus faecalis (GC 2691) [1] [µg/mL] | MIC Enterococcus faecalis (GC 3059) [1] [µg/mL] | MIC Enterococcus faecalis (GC 4552) [1] [µg/mL] | MIC Enterococcus faecalis (GC 4553) [1] [µg/mL] | MIC Enterococcus faecalis (GC 4554) [1] [µg/mL] | MIC Enterococcus faecium (GC 4556) [1] [µg/mL] | MIC Enterococcus faecium (GC 4557) [1] [µg/mL] | MIC Enterococcus avium (GC 4558) [1] [µg/mL] | MIC Enterococcus faecalis (GC 6189) [1] [µg/mL] | MIC Staphylococcus aureus (ATCC 29213) [2] [µg/mL] | MIC Staphylococcus aureus (GC 1131) [2] [µg/mL] | MIC Staphylococcus aureus (GC 3051) [2] [µg/mL] | MIC Staphylococcus aureus (GC 3053) [2] [µg/mL] | MIC Staphylococcus aureus (GC 4541) [2] [µg/mL] | MIC Staphylococcus aureus (GC 4542) [2] [µg/mL] | MIC Staphylococcus aureus-SMITH (GC 4543) [2] [µg/mL] | MIC Staphylococcus aureus (GC 4544) [2] [µg/mL] | Compound | other results
1 | 32 (≈ 28.6 µM) | 16 (≈ 14.3 µM) | 16 (≈ 14.3 µM) | 32 (≈ 28.6 µM) | 32 (≈ 28.6 µM) | 16 (≈ 14.3 µM) | 16 (≈ 14.3 µM) | 16 (≈ 14.3 µM) | 32 (≈ 28.6 µM) | 4 (≈ 3.58 µM) | 8 (≈ 7.15 µM) | 16 (≈ 14.3 µM) | 8 (≈ 7.15 µM) | 8 (≈ 7.15 µM) | 8 (≈ 7.15 µM) | 8 (≈ 7.15 µM) | 16 (≈ 14.3 µM) | 8 (≈ 7.15 µM) | 8 (≈ 7.15 µM) | 8 (≈ 7.15 µM) | CC(c1ccccc1)C1NC(=O)CNC(=O)C(CO)NC(=O)C(C(O)C2CNC(=N)N2C2OC(CO)C(O)C(O)C2O)NC(=O)C(C(O)C2CNC(=N)N2)NC(=O)C(Cc2ccc3oc(SCc4ccccc4)nc3c2)NC1=O (stereo not drawn) [Example 45, Cyclo[3-[2-(benzylthio)-1,3-benzoxazol-5-yl]alanyl-3-(2-iminoimidazolidin-4-yl)seryl-3-(3-hexopyranosyl-2-iminoimidazolidin-4-yl)serylserylglycyl-β-methylphenylalanyl]] | MIC Staphylococcus aureus (GC 4545) [2]: 8 µg/mL (≈ 7.15 µM); MIC Staphylococcus haemolyticus (GC 4546) [2]: 4 µg/mL (≈ 3.58 µM); MIC Coagulase Negative Staphylococcus (GC 4547) [2]: 4 µg/mL (≈ 3.58 µM); MIC Coagulase Negative Staphylococcus (GC 4548) [2]: 8 µg/mL (≈ 7.15 µM); MIC Coagulase Negative Staphylococcus (GC 4549) [2]: 4 µg/mL (≈ 3.58 µM); MIC Coagulase Negative Staphylococcus (GC 4551) [2]: 8 µg/mL (≈ 7.15 µM); MIC Coagulase Negative Staphylococcus (GC 6257) [2]: 4 µg/mL (≈ 3.58 µM); MIC Streptococcus pneumoniae (ATCC 6301) [3]: 16 µg/mL (≈ 14.3 µM); MIC Streptococcus pneumoniae (GC 1894) [3]: 16 µg/mL (≈ 14.3 µM); MIC Streptococcus pyogenes (GC 4563) [3]: 4 µg/mL (≈ 3.58 µM); MIC Streptococcus agalactiae (GC 4564) [3]: 16 µg/mL (≈ 14.3 µM); MIC Streptococcus pneumoniae (GC 4565) [3]: 32 µg/mL (≈ 28.6 µM); MIC Escherichia coli (ATCC 25922) [4]: 16 µg/mL (≈ 14.3 µM); MIC Escherichia coli (GC 4559) [4]: 16 µg/mL (≈ 14.3 µM); MIC Escherichia coli (GC 4560) [4]: 4 µg/mL (≈ 3.58 µM)
2 | 8 (≈ 7.09 µM) | 8 (≈ 7.09 µM) | 4 (≈ 3.55 µM) | 8 (≈ 7.09 µM) | 16 (≈ 14.2 µM) | 8 (≈ 7.09 µM) | 8 (≈ 7.09 µM) | 8 (≈ 7.09 µM) | 16 (≈ 14.2 µM) | 2 (≈ 1.77 µM) | 4 (≈ 3.55 µM) | 8 (≈ 7.09 µM) | 4 (≈ 3.55 µM) | 2 (≈ 1.77 µM) | 8 (≈ 7.09 µM) | 4 (≈ 3.55 µM) | 2 (≈ 1.77 µM) | 2 (≈ 1.77 µM) | 2 (≈ 1.77 µM) | 2 (≈ 1.77 µM) | CC(c1ccccc1)C1NC(=O)CNC(=O)C(CO)NC(=O)C(CC2CNC(=N)N2C2OC(CO)C(O)C(O)C2O)NC(=O)C(CC2CNC(=N)N2)NC(=O)C(Cc2ccc3oc(-c4ccc5c(c4)Cc4ccccc4-5)nc3c2)NC1=O (stereo not drawn) [Example 42, Cyclo[3-[2-(9H-fluoren-2-yl)-1,3-benzoxazol-5-yl]alanyl-3-(2-iminoimidazolidin-4-yl)alanyl-3-(3-hexopyranosyl-2-iminoimidazolidin-4-yl)alanylserylglycyl-β-methylphenylalanyl]] | MIC Staphylococcus aureus (GC 4545) [2]: 2 µg/mL (≈ 1.77 µM); MIC Staphylococcus haemolyticus (GC 4546) [2]: 2 µg/mL (≈ 1.77 µM); MIC Coagulase Negative Staphylococcus (GC 4547) [2]: 2 µg/mL (≈ 1.77 µM); MIC Coagulase Negative Staphylococcus (GC 4548) [2]: 1 µg/mL (≈ 0.886 µM); MIC Coagulase Negative Staphylococcus (GC 4549) [2]: 1 µg/mL (≈ 0.886 µM); MIC Coagulase Negative Staphylococcus (GC 4551) [2]: 4 µg/mL (≈ 3.55 µM); MIC Coagulase Negative Staphylococcus (GC 6257) [2]: 1 µg/mL (≈ 0.886 µM); MIC Streptococcus pneumoniae (ATCC 6301) [3]: 8 µg/mL (≈ 7.09 µM); MIC Streptococcus pneumoniae (GC 1894) [3]: 16 µg/mL (≈ 14.2 µM); MIC Streptococcus pyogenes (GC 4563) [3]: 4 µg/mL (≈ 3.55 µM); MIC Streptococcus agalactiae (GC 4564) [3]: 8 µg/mL (≈ 7.09 µM); MIC Streptococcus pneumoniae (GC 4565) [3]: 16 µg/mL (≈ 14.2 µM); MIC Escherichia coli (ATCC 25922) [4]: 32 µg/mL (≈ 28.4 µM); MIC Escherichia coli (GC 4559) [4]: 32 µg/mL (≈ 28.4 µM); MIC Escherichia coli (GC 4560) [4]: 1 µg/mL (≈ 0.886 µM)
3 | >64 | 64 (≈ 62.3 µM) | 64 (≈ 62.3 µM) | >64 | >64 | >64 | 64 (≈ 62.3 µM) | >64 | 64 (≈ 62.3 µM) | 64 (≈ 62.3 µM) | 64 (≈ 62.3 µM) | >64 | 64 (≈ 62.3 µM) | 64 (≈ 62.3 µM) | 64 (≈ 62.3 µM) | 64 (≈ 62.3 µM) | 64 (≈ 62.3 µM) | 64 (≈ 62.3 µM) | 64 (≈ 62.3 µM) | 64 (≈ 62.3 µM) | CC(=O)Nc1cc(CC2NC(=O)C(C(C)c3ccccc3)NC(=O)CNC(=O)C(CO)NC(=O)C(C(O)C3CNC(=N)N3C3OC(CO)C(O)C(O)C3O)NC(=O)C(C(O)C3CNC(=N)N3)NC2=O)ccc1O (stereo not drawn) [Example 13, Cyclo[-glycyl-β-methylphenylalanyl-3-acetamidotyrosyl-3-(2-iminoimidazolidin-4-yl)seryl-3-(3-hexopyranosyl-2-iminoimidazolodin-4-yl)serylseryl]] | MIC Staphylococcus aureus (GC 4545) [2]: 64 µg/mL (≈ 62.3 µM); MIC Staphylococcus haemolyticus (GC 4546) [2]: 64 µg/mL (≈ 62.3 µM); MIC Coagulase Negative Staphylococcus (GC 4547) [2]: 64 µg/mL (≈ 62.3 µM); MIC Coagulase Negative Staphylococcus (GC 4548) [2]: 64 µg/mL (≈ 62.3 µM); MIC Coagulase Negative Staphylococcus (GC 4549) [2]: 32 µg/mL (≈ 31.1 µM); MIC Coagulase Negative Staphylococcus (GC 4551) [2]: 64 µg/mL (≈ 62.3 µM); MIC Coagulase Negative Staphylococcus (GC 6257) [2]: 32 µg/mL (≈ 31.1 µM); MIC Streptococcus pneumoniae (ATCC 6301) [3]: 4 µg/mL (≈ 3.89 µM); MIC Streptococcus pneumoniae (GC 1894) [3]: 2 µg/mL (≈ 1.95 µM); MIC Streptococcus pyogenes (GC 4563) [3]: 8 µg/mL (≈ 7.78 µM); MIC Streptococcus agalactiae (GC 4564) [3]: 16 µg/mL (≈ 15.6 µM); MIC Streptococcus pneumoniae (GC 4565) [3]: 4 µg/mL (≈ 3.89 µM); MIC Escherichia coli (ATCC 25922) [4]: >64 µg/mL; MIC Escherichia coli (GC 4559) [4]: >64 µg/mL; MIC Escherichia coli (GC 4560) [4]: 32 µg/mL (≈ 31.1 µM)
4 | 64 (≈ 55.8 µM) | 64 (≈ 55.8 µM) | 16 (≈ 14 µM) | 64 (≈ 55.8 µM) | 64 (≈ 55.8 µM) | 64 (≈ 55.8 µM) | 16 (≈ 14 µM) | 64 (≈ 55.8 µM) | 64 (≈ 55.8 µM) | 4 (≈ 3.49 µM) | 8 (≈ 6.98 µM) | 64 (≈ 55.8 µM) | 32 (≈ 27.9 µM) | 16 (≈ 14 µM) | 16 (≈ 14 µM) | 16 (≈ 14 µM) | 16 (≈ 14 µM) | 16 (≈ 14 µM) | 16 (≈ 14 µM) | 16 (≈ 14 µM) | CC(c1ccccc1)C1NC(=O)CNC(=O)C(CO)NC(=O)C(C(O)C2CNC(=N)N2C2OC(CO)C(O)C(O)C2O)NC(=O)C(C(O)C2CNC(=N)N2)NC(=O)C(Cc2ccc3oc(SCC(=O)c4ccccc4)nc3c2)NC1=O (stereo not shown) [Example 48] | MIC Staphylococcus aureus (GC 4545) [2]: 16 µg/mL (≈ 14 µM); MIC Staphylococcus haemolyticus (GC 4546) [2]: 8 µg/mL (≈ 6.98 µM); MIC Coagulase Negative Staphylococcus (GC 4547) [2]: 4 µg/mL (≈ 3.49 µM); MIC Coagulase Negative Staphylococcus (GC 4548) [2]: 8 µg/mL (≈ 6.98 µM); MIC Coagulase Negative Staphylococcus (GC 4549) [2]: 4 µg/mL (≈ 3.49 µM); MIC Coagulase Negative Staphylococcus (GC 4551) [2]: 16 µg/mL (≈ 14 µM); MIC Streptococcus pneumoniae (ATCC 6301) [3]: 16 µg/mL (≈ 14 µM); MIC Streptococcus pneumoniae (GC 1894) [3]: 8 µg/mL (≈ 6.98 µM); MIC Streptococcus pyogenes (GC 4563) [3]: 8 µg/mL (≈ 6.98 µM); MIC Streptococcus agalactiae (GC 4564) [3]: 16 µg/mL (≈ 14 µM); MIC Streptococcus pneumoniae (GC 4565) [3]: 32 µg/mL (≈ 27.9 µM); MIC Escherichia coli (ATCC 25922) [4]: 32 µg/mL (≈ 27.9 µM); MIC Escherichia coli (GC 4559) [4]: 32 µg/mL (≈ 27.9 µM); MIC Escherichia coli (GC 4560) [4]: 4 µg/mL (≈ 3.49 µM)
